Measured values: ChEMBL document CHEMBL5390260 (J Med Chem, 2023)
The source made the active and inactive calls. The rule behind the calls is not given here.

Legend:
MDCK [1] = assay: Cytotoxicity against MDCK cells assessed as reduction in cell viability at 1 to 100 nM incubated for 72 hrs by WST-1 assay; format: toxicity, cell-based, Canis lupus familiaris; details: dog, 0.1 µM, dose 1-100 nM
HCT-116 [2] = assay: Antiproliferative activity against human HCT-116 cells assessed as inhibition of cell growth measured after 48 to 72 hrs by MTT assay; format: functional, cell-based
SW480 [3] = assay: Antiproliferative activity against human SW480 cells assessed as inhibition of cell growth measured after 48 to 72 hrs by XTT assay; format: functional, cell-based
SW-620 [4] = assay: Antiproliferative activity against human SW620 cells assessed as inhibition of cell growth measured after 48 to 72 hrs by XTT assay; format: functional, cell-based
HCT-116 [5] = assay: Antiproliferative activity against human HCT-116 cells assessed as inhibition of cell growth measured after 48 to 72 hrs in presence of 5-fluorouracil by MTT assay; format: functional, cell-based
SW480 [6] = assay: Antiproliferative activity against human SW480 cells assessed as inhibition of cell growth measured after 48 to 72 hrs in presence of 5-fluorouracil by XTT assay; format: functional, cell-based
SW-620 [7] = assay: Antiproliferative activity against human SW620 cells assessed as inhibition of cell growth measured after 48 to 72 hrs in presence of 5-fluorouracil by XTT assay; format: functional, cell-based
MCF7 = assay: Antiproliferative activity against human MCF7 cells assessed as inhibition of cell growth measured after 48 hrs by sulforhodamine B assay; format: functional, cell-based; details: MCF7, 48 h
OVCAR-8 = assay: Antiproliferative activity against human OVCAR-8 cells assessed as inhibition of cell growth measured after 48 hrs by sulforhodamine B assay; format: functional, cell-based; details: OVCAR-8, 48 h
NCI/ADR-RES = assay: Antiproliferative activity against human NCI/ADR-RES cells assessed as inhibition of cell growth measured after 48 hrs by sulforhodamine B assay; format: functional, cell-based
MDA-MB-231 = assay: Antiproliferative activity against human MDA-MB-231 cells assessed as inhibition of cell growth at 0.1 to 30 uM measured after 72 hrs by propidium iodide staining based cytofluorimetric analysis; format: functional; details: dose 0.1-30 µM
BT-549 = assay: Antiproliferative activity against human BT-549 cells assessed as inhibition of cell growth at 0.1 to 30 uM measured after 72 hrs by propidium iodide staining based cytofluorimetric analysis; format: functional; details: dose 0.1-30 µM
T-cell [8] = assay: Induction of apoptosis in human T-lymphocyte assessed as late apoptotic cells at 30 uM measured after 72 hrs by Annexin-V/propidium iodide staining based flow cytometric analysis (reference value: 14%); format: toxicity
T-cell [9] = assay: Induction of apoptosis in human T-lymphocyte assessed as increase in cell death at 30 uM measured after 72 hrs by Annexin-V/propidium iodide staining based flow cytometric analysis relative to control; format: toxicity
HCT-116 [10] = assay: Induction of apoptosis in human HCT-116 cells assessed as increase in cleaved PARP level upto 30 uM measured after 72 hrs by Western blotting analysis; format: functional, cell-based
HCT-116 [11] = assay: Induction of apoptosis in human HCT-116 cells assessed as increase in cleaved caspase-3 level upto 30 uM measured after 72 hrs by Western blotting analysis; format: functional, cell-based
HEK293T [12] = assay: Inhibition of Wnt/beta-catenin signalling pathway in LiCl stimulated HEK293T cells transfected with renilla luciferase and TOPFlash reporter gene incubated for 24 hrs by luminescence based analysis; format: cell-based; details: Homo sapiens, dose <= 30.0 µM
HEK293T [13] = assay: Inhibition of Wnt/beta-catenin signalling pathway in LiCl stimulated HEK293T cells transfected with renilla luciferase and FOPFlash reporter gene upto 30 uM incubated for 24 hrs by luminescence based analysis; format: cell-based; details: Homo sapiens
HCT-116 [14] = assay: Inhibition of Wnt/beta-catenin signalling pathway in LiCl stimulated human HCT-116 cells assessed as reduction in beta-catenin level upto 30 uM incubated for 24 hrs by Western blotting analysis; format: cell-based
HCT-116 [15] = assay: Inhibition of Wnt/beta-catenin signalling pathway in LiCl stimulated human HCT-116 cells assessed as reduction in c-MYC level upto 30 uM incubated for 24 hrs by Western blotting analysis; format: cell-based
HCT-116 [16] = assay: Inhibition of Wnt/beta-catenin signalling pathway in LiCl stimulated human HCT-116 cells assessed as reduction in […] gene expression upto 30 uM incubated for 24 hrs by RT-PCR analysis; format: cell-based
HCT-116 [17] = assay: Inhibition of Wnt/beta-catenin signalling pathway in LiCl stimulated human HCT-116 cells assessed as reduction in Sal4 gene expression upto 30 uM incubated for 24 hrs by RT-PCR analysis; format: cell-based
HT-29 [18] = assay: Cytotoxicity against doxorubicin-sensitive human HT-29 cell assessed as reduction in cell viability at 1 to 100 nM incubated for 72 hrs by WST-1 assay; format: functional; details: dose 1-100 nM
HT-29 [19] = assay: Cytotoxicity against doxorubicin-resistant human HT-29 cell assessed as reduction in cell viability at 1 to 100 nM incubated for 72 hrs by WST-1 assay; format: functional; details: dose 1-100 nM
[20] = Cytotoxicity against MDCK-P-gp cells assessed as reduction in cell viability at 1 to 100 nM incubated for 72 hrs by WST-1 assay; format: toxicity, cell-based, Canis lupus familiaris; details: dog, 0.1 µM, dose 1-100 nM
[21] = target: T1, ATP-dependent translocase ABCB1 (Homo sapiens, UniProt P08183); assay: Inhibition of P-gp in doxorubicin-resistant human HT-29 cell assessed as increase in intracellular doxorubicin accumulation incubated for 72 hrs in presence of doxorubicin by spectrofluorimetric analysis; format: cell-based; details: 0.1 µM, dose 100 nM
T1 sequence (P08183 whole entry): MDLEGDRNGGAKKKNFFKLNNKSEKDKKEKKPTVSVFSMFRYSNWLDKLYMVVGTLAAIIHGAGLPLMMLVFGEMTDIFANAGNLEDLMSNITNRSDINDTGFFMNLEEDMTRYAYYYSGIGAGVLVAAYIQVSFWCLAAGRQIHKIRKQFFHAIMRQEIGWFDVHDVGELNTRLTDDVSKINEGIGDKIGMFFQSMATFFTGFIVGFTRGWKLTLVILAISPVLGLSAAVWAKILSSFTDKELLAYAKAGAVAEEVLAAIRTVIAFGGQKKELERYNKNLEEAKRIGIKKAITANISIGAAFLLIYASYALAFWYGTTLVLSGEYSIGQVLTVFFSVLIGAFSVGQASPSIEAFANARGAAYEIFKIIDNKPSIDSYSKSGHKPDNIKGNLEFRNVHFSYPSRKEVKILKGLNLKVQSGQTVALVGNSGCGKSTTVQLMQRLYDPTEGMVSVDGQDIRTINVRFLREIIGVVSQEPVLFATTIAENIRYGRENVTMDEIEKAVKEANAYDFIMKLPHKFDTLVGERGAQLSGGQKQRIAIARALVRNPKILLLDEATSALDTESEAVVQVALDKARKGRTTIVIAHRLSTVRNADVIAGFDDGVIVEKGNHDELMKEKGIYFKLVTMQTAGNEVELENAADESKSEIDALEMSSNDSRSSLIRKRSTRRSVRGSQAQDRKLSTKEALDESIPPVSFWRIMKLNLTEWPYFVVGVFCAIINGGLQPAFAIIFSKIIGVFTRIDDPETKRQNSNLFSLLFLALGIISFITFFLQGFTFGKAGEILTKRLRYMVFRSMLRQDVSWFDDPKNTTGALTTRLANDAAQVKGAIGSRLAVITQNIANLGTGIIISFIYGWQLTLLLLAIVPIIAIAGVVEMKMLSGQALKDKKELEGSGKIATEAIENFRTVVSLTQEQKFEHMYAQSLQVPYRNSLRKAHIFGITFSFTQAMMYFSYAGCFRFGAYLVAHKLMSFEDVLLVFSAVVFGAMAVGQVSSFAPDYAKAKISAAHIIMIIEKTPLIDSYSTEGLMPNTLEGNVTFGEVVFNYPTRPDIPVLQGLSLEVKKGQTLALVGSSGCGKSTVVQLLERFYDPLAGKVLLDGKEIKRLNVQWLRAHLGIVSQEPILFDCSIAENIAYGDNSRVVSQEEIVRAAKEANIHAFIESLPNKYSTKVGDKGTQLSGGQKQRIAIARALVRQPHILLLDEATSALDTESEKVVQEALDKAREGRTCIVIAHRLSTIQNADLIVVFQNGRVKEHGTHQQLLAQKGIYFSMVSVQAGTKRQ

[22] = target: T1, ATP-dependent translocase ABCB1; assay: Inhibition of P-gp in human HT-29 cells assessed as effect on intracellular doxorubicin accumulation at 1 to 100 nM incubated for 72 hrs in presence of doxorubicin by spectrofluorimetric analysis; format: cell-based; details: dose 1-100 nM
MDCK-P-gp [23] = assay: Inhibition of P-gp in MDCK-P-gp cells assessed as effect on intracellular doxorubicin accumulation at 1 to 100 nM incubated for 72 hrs in presence of doxorubicin by […] assay; format: cell-based; details: Canis lupus familiaris, dose 1-100 nM
[24] = target: T1, ATP-dependent translocase ABCB1; assay: Inhibition of P-gp ATPase activity in doxorubicin-resistant human HT-29 cell assessed as reduction in rate of ATP hydrolysis at 10 nM incubated for 3 hrs by spectrophotometric analysis; format: cell-based; details: 0.01 µM
MDCK-P-gp [25] = assay: Inhibition of P-gp ATPase activity in MDCK-P-gp cells assessed as reduction in rate of ATP hydrolysis at 10 nM incubated for 3 hrs by spectrophotometric analysis; format: cell-based; details: Canis lupus familiaris
HT-29 [26] = assay: Cytotoxicity against doxorubicin-sensitive human HT-29 cell assessed as reduction in cell viability at 1 to 100 nM incubated for 72 hrs in presence of doxorubicin by WST-1 assay; format: functional, cell-based; details: dose 1-100 nM
HT-29 [27] = assay: Cytotoxicity against doxorubicin-resistant human HT-29 cell assessed as reduction in cell viability incubated for 72 hrs in presence of doxorubicin by WST-1 assay; format: functional, cell-based; details: dose 1-100 nM
MDCK [28] = assay: Cytotoxicity against MDCK cells assessed as reduction in cell viability at 1 to 100 nM incubated for 72 hrs in presence of doxorubicin by WST-1 assay; format: toxicity, cell-based, Canis lupus familiaris; details: dog, 0.1 µM, dose 1-100 nM
[29] = Cytotoxicity against MDCK-P-gp cells assessed as reduction in cell viability incubated for 72 hrs in presence of doxorubicin by WST-1 assay; format: toxicity, cell-based, Canis lupus familiaris; details: dog, dose 1-100 nM
HT-29 [30] = assay: Cytotoxicity against doxorubicin-resistant human HT-29 cell assessed as reduction in cell viability […] incubated for 72 hrs in presence of doxorubicin by WST-1 assay; format: functional, cell-based
Carbonic anhydrase 9 = Carbonic anhydrase 9 (Homo sapiens, UniProt Q16790)
Carbonic anhydrase 12 = Carbonic anhydrase 12 (Homo sapiens, UniProt O43570); assay: Binding affinity to human recombinant CA12 assessed as inhibition constant incubated for 15 mins by phenol red dye based stopped flow CO2 hydration assay
Chain of Carbonic anhydrase 12 (O43570 whole entry): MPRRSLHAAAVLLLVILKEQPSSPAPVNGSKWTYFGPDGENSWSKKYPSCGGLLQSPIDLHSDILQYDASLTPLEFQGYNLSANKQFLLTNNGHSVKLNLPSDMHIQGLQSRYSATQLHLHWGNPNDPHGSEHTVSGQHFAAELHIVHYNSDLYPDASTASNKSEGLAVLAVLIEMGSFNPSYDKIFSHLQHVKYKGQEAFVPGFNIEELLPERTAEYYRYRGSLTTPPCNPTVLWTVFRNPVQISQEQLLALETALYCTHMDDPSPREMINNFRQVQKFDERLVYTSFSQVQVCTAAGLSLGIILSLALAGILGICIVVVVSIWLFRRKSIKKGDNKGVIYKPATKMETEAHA

Carbonic anhydrase 2 = Carbonic anhydrase 2 (Homo sapiens, UniProt P00918); assay: Binding affinity to human recombinant CA2 assessed as inhibition constant incubated for 15 mins by phenol red dye based stopped flow CO2 hydration assay
Tubulin (Homo sapiens) = Tubulin (Homo sapiens) (UniProt P68371+Q9H4B7+P0DPH7+P68366+Q13509+Q71U36+P04350+Q3ZCM7+P07437+P68363+Q9BQE3+Q6PEY2+Q13885+Q9BVA1+Q9BUF5); assay: Inhibition of tubulin polymerization (unknown origin) at 20 uM preincubated for 15 mins followed by GTP addition by spectrophotometric analysis; format: protein-complex assay

COc1cc(C(=O)c2cn(-c3ccc(S(N)(=O)=O)cc3)cc2-c2ccccc2)cc(OC)c1OC
Activity (MDCK [1]): > 75%
IC50 (HCT-116 [2]): 8700 nM
IC50 (SW480 [3]): 17700 nM
IC50 (SW-620 [4]): 23800 nM
IC50 (HCT-116 [5]): 17000 nM
IC50 (SW480 [6]): 42900 nM
IC50 (SW-620 [7]): 37300 nM
IC50 (MCF7): 1900 nM
IC50 (OVCAR-8): 1900 nM
IC50 (NCI/ADR-RES): 2100 nM
Activity (MDA-MB-231): Active
Activity (BT-549): Active
Activity (T-cell [8]): 20%
Activity (T-cell [9]): 6%
Activity (HCT-116 [10]): Active
Activity (HCT-116 [11]): Active
inhibition (HEK293T [12]): Dose-Dependent Effect
inhibition (HEK293T [13]): inactive
inhibition (HCT-116 [14]): Active
inhibition (HCT-116 [15]): Active
inhibition (HCT-116 [16]): Active
inhibition (HCT-116 [17]): Active
Activity (HT-29 [18]): >75%
Activity (HT-29 [19]): >75%
Activity [20]: > 75%
inhibition (INH) [21]: Dose-Dependent Effect
inhibition (INH) [22]: Not Active
inhibition (MDCK-P-gp [23]): inactive
inhibition (INH) [24]: Active
inhibition (MDCK-P-gp [25]): Active
Activity (HT-29 [26]): Active
Activity (HT-29 [27]): Dose-Dependent Effect
Activity (MDCK [28]): Non-Toxic
Activity [29]: Dose-Dependent Effect
Activity (HT-29 [30]): Active

NS(=O)(=O)c1ccc(-n2cc(C(=O)c3ccccc3)c(-c3ccccc3)c2)cc1
Ki (Carbonic anhydrase 9): 38.6 nM
Ki (Carbonic anhydrase 12): 59.4 nM

Nc1ccc(C(=O)c2ccc(-c3ccc(S(N)(=O)=O)cc3)cc2)cc1
EC50 (NCI/ADR-RES): 2100 nM

NS(=O)(=O)c1ccc(-n2ccc(C(=O)c3ccccc3)c2)cc1
Ki (Carbonic anhydrase 9): 66 nM
Ki (Carbonic anhydrase 12): 47.1 nM

COc1cc(C(=O)c2cn(-c3ccc(S(N)(=O)=O)cc3)c3ccccc23)cc(OC)c1OC
IC50 (HCT-116 [5]): 14000 nM
IC50 (SW480 [6]): 50300 nM
IC50 (SW-620 [7]): 25800 nM

NS(=O)(=O)c1ccc(-n2cc(C(=O)c3ccccc3)c3ccccc32)cc1
Ki (Carbonic anhydrase 9): 31.6 nM
Ki (Carbonic anhydrase 12): 52 nM

COc1cccc2c1C(=O)c1c(O)c3c(c(O)c1C2=O)C[C@@](O)(C(=O)CO)C[C@@H]3O[C@H]1C[C@H](N)[C@H](O)[C@H](C)O1 [DOXORUBICIN]
Activity (MDCK [1]): Toxic
Activity (HT-29 [18]): Active
Activity (HT-29 [19]): inactive
Activity [20]: Non-Toxic

COc1cc(C(=O)c2ccn(-c3ccc(S(N)(=O)=O)cc3)c2)cc(OC)c1OC
Ki (Carbonic anhydrase 2): 10.2 nM
Ki (Carbonic anhydrase 9): 44.8 nM
Ki (Carbonic anhydrase 12): 11.5 nM
inhibition (Tubulin (Homo sapiens)): inactive
IC50 (MCF7): 3900 nM
IC50 (OVCAR-8): 1900 nM
IC50 (NCI/ADR-RES): 2200 nM
